Publication PMC12020424, “Identification and Validation of Cyclic Peptides with Mucin-Selective, Location-Specific Binding in the Gastrointestinal Tract” (ACS Nano, 2025)
Bridge positions count the residues as written; N and C are the ends. Ends that are not written are not given here.

Legend:
MUC2 [1] = target: T1, MUC2 (Homo sapiens, UniProt Q02817); assay: Phage ELISA on MUC2; format: binding; conditions: phage clones displaying the peptide, 10^7 PFU/μL, MUC2-coated plate, anti-M13/HRP, TMB, 450 nm, blank subtracted, three wells; vs random library and insertless phage
Excerpt: We next sought to validate the binding efficiency of these identified phage clones. We tested phage clones displaying peptides M2.1, M2.2, M2.3, and M2.4 for binding to MUC2, and phage clones displaying peptides M5.1, M5.2, M5.3, and M5.4 for binding to MUC5AC. We utilized a bacteriophage enzyme-linked immunosorbent assay to test the binding of the peptide hits to the specific target mucins, MUC2 and MUC5AC (Figure 2d). The spectrophotometer reported absorbance values at 450 nm. The intensity of the absorbance signal is proportional to the amount of peptide-mucin binding present in each sample. The negative controls (library samples and insertless samples) served as references for nonspecific binding.
First, mucin was coated onto the surface of a plastic plate overnight using the same process as that performed for the original phage display. The next morning, three wells of each phage clone were prepared, with each phage solution having a titer of 10^7 PFU/μL to ensure a fair comparison between the clones. […]
However, instead of eluting the bound phage, 100 μL of 1:2000 anti-M13/HRP mouse monoclonal antibody was added to each well, and the antibody was allowed to incubate with the wells for 30 min. […] The resulting solutions were analyzed by absorbance spectroscopy at a wavelength of 450 nm to determine the relative amount of phage present in each well.

MUC2 [2] = target: T1, MUC2; assay: Phage display (CX7C library) against MUC2, Sanger sequencing; format: binding; conditions: for % Prevalence: MUC2 phage screening, CX7C library, third round of panning, 16 sequenced candidates
Procedure: For each mucin of interest, 5 μg of mucin protein was diluted in 150 μL of Tris-buffered saline (TBS) and added to 2 wells of a microtiter plate. The plate was left overnight in a humidified, sealed container with agitation at 50 rpm. After the overnight mucin coating, the solution was poured out, and 300 μL of blocking buffer was added to the wells for 1 h. After the 1 h waiting period, the blocking buffer was poured out, and the wells were washed three times with 300 μL of Tris-buffered saline with TBST (TBS + 0.1% (v/v) Tween-20) to remove nonspecific binding on the mucin layer coating. Next, 5 μL of the C7C library diluted with 95 μL of TBST was added to each blocked well and placed on shaker for 45 min, before pouring out the nonbinding phage and washing the plate ten times with TBST. A 0.2 M glycine-HCl elution buffer (pH 2.2, 100 μL) was added to each well and placed on a shaker for 20 min to release the mucin-layer binding peptides on the plate as unamplified eluate, with the pH neutralized by 30 μL of neutralization buffer (1 M Tris-HCl, pH 9).
E. coli liquid cultures were prepared by adding E. coli cells to 20 mL of LB media and placing them in shaking conditions at 37 °C and 250 rpm for 2 h and 45 min. The unamplified eluate (1 μL of which was saved for titering) was added to the E. coli cultures under the same conditions for 4 h and 45 min for amplification. After amplification, the cultures were centrifuged for 10 min at 12,000 g RCF at 4 °C, and the supernatant was collected and spun again under the same conditions for 5 min. The top 16 mL of supernatant was collected and mixed with 4 mL of PEG/NaCl (20% (w/v) PEG-8000/2.5 M NaCl in water) to promote precipitation of the mucin-binding peptide-containing phage and left overnight.
Titering was performed to measure the amount of phages present in the solution. From the obtained unamplified eluate, 1 μL of unamplified eluate was added to 999 μL of LB solution to obtain a 10³ dilution. […]

Sequence	phage ELISA absorbance vs negative controls (MUC2 [1])	% Prevalence (MUC2 [2])	repeated peptide hits (number of phage candidates) (MUC2 [2]; phage display against MUC2, Sanger sequencing)
CAKHRIMLC (disulfide 1-9 (inferred)) [Peptide M2.1, CX7C cyclic peptide hit for MUC2; AF647 conjugated at N-terminus in ex vivo tests]	significantly higher absorbances than the two negative controls	25%	4 of 16
CTDKASSSC (disulfide 1-9 (inferred)) [Peptide M2.2, CX7C cyclic peptide hit for MUC2]	significantly higher absorbances than the two negative controls	6.25%	
